# Measured values from patent US20240208930A1, “CRYSTALLINE FORM OF SPHINGOSINE-1-PHOSPHATE RECEPTOR AGONIST” (LG CHEM, LTD., priority 2021, published 2024).
# Entries after “also recorded” stand apart in the source; their conditions may differ.
# Legend:
# [1] = DVS (dynamic vapor sorption); format: physicochemical
# Experimental: Moisture sorption/desorption data were collected on a DVS Intrinsic instrument (Surface Measurement Systems). Samples were not dried prior to analysis. Sorption and desorption data were collected over the range of 5% to 95% RH with 10% RH increments under nitrogen. The equilibrium criterion used in the analysis was less than 0.0100% change in weight in 5 minutes with a maximum equilibration time of 3 hours. Data on the initial moisture content of the samples were not corrected. The results are represented in FIG. 6.
# [2] = Stability test (XRPD, naked eye observation, HPLC) after storage under accelerated and severe conditions; format: physicochemical
# Experimental: To investigate the stability of Crystalline Form A, after storage for 2 weeks under accelerated (40° C./75% RH) and severe (80° C.) conditions, the physical stability was confirmed by naked eye observation and XRD measurement (FIG. 7), and chemical stability was confirmed by the analysis of the sample purity using HPLC (Table 3). HPLC equipment and analysis methods are represented in Table 1.
# A stability test was carried out in the same manner as in Example 2. • (5) Results
# [3] = severe condition (80° C.), 2 weeks
SMILES,XRPD pattern of the solid retrieved after DVS [1],"change in the crystal form in XRPD ([2]; 2 weeks, accelerated (40° C./75% RH) and severe (80° C.) conditions)","physical/chemical stability ([2]; 2 weeks, accelerated (40° C./75% RH) and severe (sealed state, 80° C.) conditions)",time physically stable ([2]; 80° C.),"sample purity using HPLC ([2]; Accelerated condition (40° C./75% RH), 1 week) [%]","sample purity using HPLC ([2]; Accelerated condition (40° C./75% RH), 2 weeks) [%]","sample purity using HPLC ([2]; Accelerated condition (40° C./75% RH), 3 days) [%]",sample purity using HPLC ([2]; Initial) [%],"sample purity using HPLC ([2]; Severe condition (80° C.), 1 week) [%]","sample purity using HPLC ([2]; Severe condition (80° C.), 3 days) [%]",naked eye observation ([2]; after 2 weeks of severe condition (80° C.)),"amount of impurities in the sample [2, 3]","sample purity using HPLC [2, 3] [%]"
"CC(C)n1nc(Cl)c2cc(COc3ccc4c(c3)CCC(CN3CCC(C(=O)O)CC3)=C4Cl)ccc21 [Crystalline Form A, 1-[1-chloro-6-(3-chloro-1-isopropyl-1H-indazol-5-ylmethoxy)-3,4-dihydro-naphthalen-2-ylmethyl]-piperidine-4-carboxylic acid]",XRPD patterns similar to the initial ones,no change in the crystal form,physically/chemically stable; also recorded: physical/chemical stability was confirmed,,,,,,,,,,
"CC(C)n1nc(Cl)c2cc(COc3ccc4c(c3)CCC(CN3CCC(C(=O)O)CC3)=C4Cl)ccc21 [amorphous form, 1-[1-chloro-6-(3-chloro-1-isopropyl-1H-indazol-5-ylmethoxy)-3,4-dihydro-naphthalen-2-ylmethyl]-piperidine-4-carboxylic acid]",,,,at least 2 weeks,98.1,98.8,98.8,100.7,87.2,90.7,free-flowing particles that were broken when struck and bubble-like yellow masses,increased,77.3
